# Tested on: A549 cells
# Experiment: Cell viability by MTT method in A549 cells
# Assay type: cell-based
# Design: concentration or dose not given beside the values
# Settings: 72 hours treatment
row,SMILES,Cell Viability (% inhibition) (A549) [%]
1,"Cc1ccc(S(=O)(=O)N[C@@H](CC(C)C)C(=O)N2CCOCC2)cc1 [Compound 1, (S)-4-methyl-N-(4-methyl-1-morpholino-1-oxopentan-2-yl)benzenesulfonamide]",17.79
2,"Cc1ccc(S(=O)(=O)N[C@H](CC(C)C)C(=O)N2CCOCC2)cc1 [Compound 2, (R)-4-methyl-N-(4-methyl-1-morpholino-1-oxopentan-2-yl)benzenesulfonamide]",29.46
3,"Cc1ccc(S(=O)(=O)N[C@@H](CC(C)C)C(=O)Nc2ccc(N3CCCCC3)cc2)cc1 [Compound 7, (S)-4-methyl-2-(4-methylphenylsulfonamido)-N-(4-(piperidin-1-yl)phenyl)pentanamide]",23.48
4,"Cc1ccc(S(=O)(=O)N[C@@H](CC(C)C)C(=O)Nc2ccc(N3CCC(C)CC3)cc2)cc1 [Compound 8, (S)-4-methyl-2-(4-methylphenylsulfonamido)-N-(4-(4-methylpiperidin-1-yl)phenyl) pentanamide]",24.89
5,"Cc1ccc(S(=O)(=O)N[C@@H](CC(C)C)C(=O)Nc2ccc(N3CCOCC3)cc2)cc1 [Compound 11, (S)-4-methyl-2-(4-methylphenylsulfonamido)-N-(4-morpholinophenyl)pentanamide]",23.76
6,"Cc1ccc(S(=O)(=O)N[C@@H](CC(C)C)C(=O)Nc2ccc(N3CCS(=O)(=O)CC3)cc2)cc1 [Compound 15, (S)—N-(4-(1,1-dioxidothiomorpholino)phenyl)-4-methyl-2-(4-methylphenylsulfonamido)pentanamide]",4.86 ± 8.75
7,"Cc1ccc(S(=O)(=O)N[C@@H](CC(C)C)C(=O)Nc2ccc(N3CCCC3)cc2)cc1 [Compound 17, (S)-4-methyl-2-(4-methylphenylsulfonamido)-N-(4-(pyrrolidin-1-yl)phenyl)pentanamide]",20.11
8,"CC(C)C[C@H](NS(=O)(=O)c1ccc(F)cc1)C(=O)Nc1ccc(N2CCOCC2)cc1 [Compound 21, (S)-2-(4-fluorophenylsulfonamido)-4-methyl-N-(4-morpholinophenyl)pentanamide]",33.04
9,"CC(C)C[C@H](NS(=O)(=O)c1ccc(Br)cc1)C(=O)Nc1ccc(N2CCOCC2)cc1 [Compound 22, (S)-2-(4-bromophenylsulfonamido)-4-methyl-N-(4-morpholinophenyl)pentanamide]",39.56 ± 5.42
10,"CC(C)C[C@H](NS(=O)(=O)c1ccccc1)C(=O)Nc1ccc(N2CCOCC2)cc1 [Compound 27, (S)-4-methyl-N-(4-morpholinophenyl)-2-(phenylsulfonamido)pentanamide]",13.51 ± 9.40
11,"COc1ccc(S(=O)(=O)N[C@@H](CC(C)C)C(=O)Nc2ccc(N3CCOCC3)cc2)cc1 [Compound 29, (S)-2-(4-methoxyphenylsulfonamido)-4-methyl-N-(4-morpholinophenyl)pentanamide]",12.70 ± 4.95
12,"CC(C)C[C@H](NS(=O)(=O)c1ccc([N+](=O)[O-])cc1)C(=O)Nc1ccc(N2CCOCC2)cc1 [Compound 31, (S)-4-methyl-N-(4-morpholinophenyl)-2-(4-nitrophenylsulfonamido)pentanamide]",33.24 ± 4.95
13,"CC(C)C[C@H](NS(=O)(=O)c1ccc(-c2ccccc2)cc1)C(=O)Nc1ccc(N2CCOCC2)cc1 [Compound 33, (S)-2-(biphenyl-4-ylsulfonamido)-4-methyl-N-(4-morpholinophenyl)pentanamide]",26.48 ± 3.66
14,"Cc1ccc(S(=O)(=O)N[C@@H](C)C(=O)Nc2ccc(N3CCOCC3)cc2)cc1 [Compound 44, (S)-2-(4-methylphenylsulfonamido)-N-(4-morpholinophenyl)propanamide]",14.05 ± 4.05
15,"CSCC[C@H](NS(=O)(=O)c1ccc(C)cc1)C(=O)Nc1ccc(N2CCOCC2)cc1 [Compound 45, (S)-2-(4-methylphenylsulfonamido)-4-(methylthio)-N-(4-morpholinophenyl)butanamide]",12.97 ± 1.24
16,"Cc1ccc(S(=O)(=O)N[C@@H](Cc2ccccc2)C(=O)Nc2ccc(N3CCOCC3)cc2)cc1 [Compound 48, (S)-2-(4-methylphenylsulfonamido)-N-(4-morpholinophenyl)-3-phenylpropanamide]",45.68 ± 2.92
17,"COc1ccc(-c2csc(NC(=O)[C@H](Cc3c[nH]c4ccccc34)NS(=O)(=O)c3ccc(Br)cc3)n2)cc1 [Compound 62, (S)-2-(4-Bromophenylsulfonamido)-3-(1H-indol-3-yl)-N-(4-(4-methoxyphenyl)thiazol-2-yl)propanamide]",90.17 ± 0.96
18,"Cc1ccccc1S(=O)(=O)N[C@@H](Cc1c[nH]c2ccccc12)C(=O)Nc1ccc(N2CCOCC2)cc1 [Compound 64, (S)-3-(1H-indol-3-yl)-2-(2-methylphenylsulfonamido)-N-(4-morpholinophenyl)propanamide]",51.75 ± 1.56
19,"Cc1cccc(S(=O)(=O)N[C@@H](Cc2c[nH]c3ccccc23)C(=O)Nc2ccc(N3CCOCC3)cc2)c1 [Compound 65, (S)-3-(1H-indol-3-yl)-2-(3-methylphenylsulfonamido)-N-(4-morpholinophenyl)propanamide]",74.94 ± 1.04
20,"Cc1ccc(S(=O)(=O)N[C@H](Cc2c[nH]c3ccccc23)C(=O)Nc2ccc(N3CCOCC3)cc2)cc1 [Compound 76, (R)-3-(1H-indol-3-yl)-2-(4-methylphenylsulfonamido)-N-(4-morpholinophenyl)propanamide]",63.47 ± 0.82
21,"COC[C@H](C)Oc1ccc(-c2csc(NC(=O)[C@H](CC(C)C)NS(=O)(=O)c3ccc(C)cc3)n2)cc1 [Compound 98, (S)—N-(4-(4((S)-1-methoxypropan-2-yloxy)phenyl)thiazol-2-yl)-4-methyl-2-(4-methylphenylsulfonamido)pentanamide]",76.55 ± 1.52
22,"Cc1ccc(S(=O)(=O)N[C@@H](CC(C)C)C(=O)Nc2nc(-c3ccc(N4CCOCC4)cc3)cs2)cc1 [Compound 99, (S)-4-Methyl-2-(4-methylphenylsulfonamido)-N-(4-(4-morpholinophenyl)thiazol-2-yl)pentanamide]",73.11 ± 3.83
23,"COC(=O)c1ccc(-c2csc(NC(=O)[C@H](CC(C)C)NS(=O)(=O)c3ccc(C)cc3)n2)cc1 [Compound 100, (S)-Methyl 4-(2-(4-methyl-2-(4-methylphenylsulfonamido)pentanamido)thiazol-4-yl)benzoate]",79.24 ± 1
24,"COc1ccc(-c2csc(NC(=O)[C@H](Cc3c[nH]c4ccccc34)NS(=O)(=O)c3ccc(Br)cc3)n2)c(OC)c1 [Compound 108, (S)-2-(4-Bromophenylsulfonamido)-N-(4-(2,4-dimethoxyphenyl)thiazol-2-yl)-3-(1H-indol-3-yl)propanamide]",9.05 ± 7.51
25,"Cc1ccc(S(=O)(=O)N[C@@H](Cc2cn(C=O)c3ccccc23)C(=O)Nc2ccc(N3CCOCC3)cc2)cc1 [Compound 125, (S)-3-(1-Formyl-1H-indol-3-yl)-2-(4-methylphenylsulfonamido)-N-(4-morpholinophenyl)propanamide]",49.76 ± 2.98

# Reference: US20220204497A1, “NOVEL COMPOUND HAVING ANTICANCER ACTIVITY, AND METHOD FOR PRODUCING SAME” (MEDICINAL BIOCONVERGENCE RESEARCH CENTER, priority 2019, published 2022)
